# Test results from patent publication EP1441698B1, “FLASHMELT ORAL DOSAGE FORMULATION” (Otsuka Pharmaceutical Co., Ltd., priority 2001, dated 2003).
# Test: Hygroscopicity: water content of crystals after storage in a desiccator (e.g. Karl Fischer method)
# Type: physicochemical
# Conditions: after 24 hours inside a dessicator at 60°C and a humidity of 100%
# Protocol: Aripiprazole Anhydride Crystals B of the present invention have low hygroscopicity. For example, Aripiprazole Anhydride Crystals B of the present invention maintain a water content of 0.4% or less after 24 hours inside a dessicator set at a temperature of 60°C and a humidity of 100%.
# Well-known methods of measuring water content can be used as long as they are methods commonly used for measuring the water content of crystals. For example, a method such as the Karl Fischer method can be used.
smiles,measurement,value
"O=C1CCc2ccc(OCCCCN3CCN(c4cccc(Cl)c4Cl)CC3)cc2N1 [Aripiprazole Anhydride Crystals B, aripiprazole]",water content,≤ 0.4%
